Assay results: PMC7317212 (Chemmedchem, 2020)

Assays:
[1] = target: T1, mGAT1 (Mus musculus, UniProt P31648); assay: MS Binding Assay with NO711 as native MS marker; conditions: for remaining activity at 100 µM: in presence of 100 μM compound, read-out: remaining specific NO711 binding (mGAT1); for Ki: MS Binding Assay, NO711 marker, pKi±SEM, read-out: pK i mGAT1 (converted)
T1 construct: expressed in transfected cells; host or cells: HEK293
Method: (§1) For compounds with pIC50 ([^3H]GABA uptake assay) or pK i (MS Binding Assays) values close to or above 5.0, these experiments were repeated twice and SEM have been calculated.
MS Binding Assays: The MS Binding Assays were performed with mGAT1 membrane preparations obtained from a stably mGAT1 expressing HEK293 cell line and NO711 as unlabeled marker in competitive binding experiments as previously described in detail.34 In short, test compounds were investigated at 7 concentrations in presence of 10 nM NO 711 in competition experiments. Non specific binding was defined as binding remaining in the presence of 100 mM GABA. Incubation was terminated by transfer of 200 μL per well onto a 96‐well filter plate (Acroprep, glass fibre, 1.0 μm, 350 μL, Pall, Dreieich, Germany) with a 12 channel pipette. After rapid vacuum‐filtration the filters were washed with ice cold 0.9 % NaCl (5×150 μL) and dried at 50 °C for 60 min. Afterwards, the filters were eluted with 100 μL methanol containing [^2H10]NO711 (1.4 nM) as internal standard per well into a deep‐well plate by application of vacuum. This step was repeated twice resulting in a total elution volume of 300 μL. Finally, a volume of 130 μL ammonium formate buffer (10 mM, pH 7.0) was added per well and the generated samples analyzed by LC‐ESI‐MS/MS using a API 3200 as described in detail previously.40

[2] = target: T2, mGAT3 (Mus musculus, UniProt P31649); assay: [^3H]GABA uptake assay, HEK293 cells expressing mGAT3; type: cell-based; conditions: for remaining activity at 100 µM: HEK293, in presence of 100 μM compound; for IC50: [^3H]GABA uptake, pIC50±SEM
T2 construct: expressed in transfected cells; host or cells: HEK293
T2 sequence (P31649 1-602): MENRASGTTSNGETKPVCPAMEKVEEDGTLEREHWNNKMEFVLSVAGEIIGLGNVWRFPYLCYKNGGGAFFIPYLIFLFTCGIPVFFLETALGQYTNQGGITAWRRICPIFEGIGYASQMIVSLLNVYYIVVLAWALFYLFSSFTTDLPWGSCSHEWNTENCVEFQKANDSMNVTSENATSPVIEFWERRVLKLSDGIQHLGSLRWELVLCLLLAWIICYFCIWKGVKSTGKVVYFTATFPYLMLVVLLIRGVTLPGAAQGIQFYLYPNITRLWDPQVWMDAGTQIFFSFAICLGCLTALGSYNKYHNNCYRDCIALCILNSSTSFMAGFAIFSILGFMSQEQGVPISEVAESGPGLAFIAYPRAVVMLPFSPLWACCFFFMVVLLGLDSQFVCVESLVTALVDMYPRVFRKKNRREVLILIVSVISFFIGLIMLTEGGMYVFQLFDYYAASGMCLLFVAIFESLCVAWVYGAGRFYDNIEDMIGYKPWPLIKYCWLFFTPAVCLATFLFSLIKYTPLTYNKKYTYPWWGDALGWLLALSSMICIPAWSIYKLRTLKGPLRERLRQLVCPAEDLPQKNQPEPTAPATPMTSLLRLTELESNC
Method: as §1
(§2) [^3H]GABA uptake assays: The [^3H]GABA uptake assays were performed according to Kragler et al.33 Cells were grown in 150 cm^2 plates to a confluence of 70–90 % up to passage 25. After detachment the cells were centrifuged 5 min at 500×g, washed for three times in phosphate buffered saline and, finally, resuspended in Krebs buffer (2.5 mM CaCl2, 1.2 mM MgSO4, 1.2 mM KH2PO4, 4.7 mM KCl, 11 mM glucose, 25 mM Tris, 119 mM NaCl, pH 7.2). The uptake assays were performed with aliquots of the resulting cell suspension (about 100000–200000 cells per well) in a total volume of 250 μl in 96 well 2.2 mL deep well plates. The cells were equilibrated for 25 min in Krebs buffer in the presence of the test compound at 37 °C in a gently shaking water bath. […] After addition of 25 μl of a solution containing [^3H]GABA (2.22 TBq/mmol, ARC, St Louis, MO, USA) and unlabeled GABA in Krebs (final concentration 8 nM [^3H]GABA and 32 nM unlabeled GABA for mGAT1, mGAT3, mGAT4 and 20 nM [^3H]GABA and 20 nM unlabeled GABA for mGAT2) the cells were incubated for further 4 min (mGAT1, mGAT3, mGAT4) or 10 minutes (mGAT2), respectively. The incubation was stopped by filtration through Sartorius MGC micro glass fiber filters pre‐soaked for 1 h in 0.9 % NaCl by means of a Brandell MWXR‐96TI cell harvester (Brandell, Gaithersburg, MD, USA) under reduced pressure. The filters were rinsed two times with cold 0.9 % NaCl and subsequently transferred to 96 well sample plates (Perkin Elmer LAS, Boston, MA, USA). After addition of 200 μl Rotiszint Eco Plus (Roth, Karlsruhe, Germany) per well the radioactivity was determined in a microbeta liquid scintillation counter (Perkin Elmer LAS, Boston, MA, USA). Non‐specific uptake was determined in presence of 10 mM GABA for mGAT1, mGAT3 and mGAT4 or 100 mM GABA for mGAT2, respectively. The results are expressed as means±S.E.M. of at least three separate experiments, each carried out in triplicate.

[3] = target: T3, mGAT4 (Mus musculus, UniProt P31650); assay: [^3H]GABA uptake assay, HEK293 cells expressing mGAT4; type: cell-based; conditions: for remaining activity at 100 µM: HEK293; for IC50: [^3H]GABA uptake, pIC50±SEM
T3 construct: expressed in transfected cells; host or cells: HEK293
T3 sequence (P31650 1-627): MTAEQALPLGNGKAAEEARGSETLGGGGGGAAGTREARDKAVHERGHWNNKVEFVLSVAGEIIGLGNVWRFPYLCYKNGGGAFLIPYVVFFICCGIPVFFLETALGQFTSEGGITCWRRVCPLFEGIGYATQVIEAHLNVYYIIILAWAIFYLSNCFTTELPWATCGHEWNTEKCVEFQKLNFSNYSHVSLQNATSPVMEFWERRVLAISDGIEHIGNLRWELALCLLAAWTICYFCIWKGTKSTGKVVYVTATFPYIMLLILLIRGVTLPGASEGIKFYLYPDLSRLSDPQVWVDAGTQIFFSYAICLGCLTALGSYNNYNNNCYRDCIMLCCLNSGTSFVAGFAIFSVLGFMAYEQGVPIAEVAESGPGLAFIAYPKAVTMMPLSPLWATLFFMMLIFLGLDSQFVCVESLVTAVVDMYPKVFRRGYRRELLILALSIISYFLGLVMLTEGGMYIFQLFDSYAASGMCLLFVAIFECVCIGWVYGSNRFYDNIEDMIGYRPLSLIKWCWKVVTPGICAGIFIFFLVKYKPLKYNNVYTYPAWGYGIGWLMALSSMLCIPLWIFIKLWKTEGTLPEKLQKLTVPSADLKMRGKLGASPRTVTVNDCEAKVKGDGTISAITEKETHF
Method: as §1, §2

[4] = target: T1, mGAT1; assay: [^3H]GABA uptake assay, HEK293 cells expressing mGAT1; type: cell-based; conditions: for remaining activity at 100 µM: HEK293, in presence of 100 μM compound
Method: as §1, §2

[5] = target: T4, mGAT2 (Mus musculus, UniProt P31651); assay: [^3H]GABA uptake assay, HEK293 cells expressing mGAT2; type: cell-based; conditions: for remaining activity at 100 µM: HEK293, in presence of 100 μM compound
T4 construct: expressed in transfected cells; host or cells: HEK293
T4 sequence (P31651 1-614): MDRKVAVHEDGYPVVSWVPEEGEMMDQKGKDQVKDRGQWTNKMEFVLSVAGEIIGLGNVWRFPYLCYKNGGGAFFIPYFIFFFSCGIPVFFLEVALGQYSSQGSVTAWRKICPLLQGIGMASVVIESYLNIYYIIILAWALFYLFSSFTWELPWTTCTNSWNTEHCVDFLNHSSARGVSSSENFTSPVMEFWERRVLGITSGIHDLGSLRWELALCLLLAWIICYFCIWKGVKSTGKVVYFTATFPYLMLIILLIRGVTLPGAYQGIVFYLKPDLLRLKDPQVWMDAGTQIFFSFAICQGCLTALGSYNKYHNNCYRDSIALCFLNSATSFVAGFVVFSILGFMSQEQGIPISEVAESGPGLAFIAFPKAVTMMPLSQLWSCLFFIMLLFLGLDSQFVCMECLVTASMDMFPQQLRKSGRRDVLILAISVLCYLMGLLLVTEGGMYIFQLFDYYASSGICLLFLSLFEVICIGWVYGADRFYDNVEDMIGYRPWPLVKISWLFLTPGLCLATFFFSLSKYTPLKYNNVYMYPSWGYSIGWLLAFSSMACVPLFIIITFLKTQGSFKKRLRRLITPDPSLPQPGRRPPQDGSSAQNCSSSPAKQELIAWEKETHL
Method: as §1, §2

| Structure (SMILES) | remaining activity at 100 µM [1] [%] | remaining activity at 100 µM [2] [%] | remaining activity at 100 µM ([3]; in presence of 100 μM compound) [%] | remaining [^3H]GABA uptake mGAT4 ([3]; in presence of 100 μM compound) | remaining activity at 100 µM [4] [%] | remaining activity at 100 µM [5] [%] | IC50 [3] [µM] | Ki [1] [µM] | IC50 [2] [µM] | IC50 ([5]; [^3H]GABA uptake, pIC50±SEM) [µM] | IC50 ([4]; [^3H]GABA uptake, pIC50±SEM) [µM] |
| --- | --- | --- | --- | --- | --- | --- | --- | --- | --- | --- | --- |
| COc1ccc(C(OCCN2CCCC(C(=O)O)C2)(c2ccc(CO)cc2)c2ccc(OC)cc2)cc1 (racemic) [5 m, rac‐1‐(2‐{[4‐(Hydroxymethyl)phenyl]bis[4‐methoxyphenyl]methoxy}‐ethyl)piperidine‐3‐carboxylic acid] | 55 | 58.7 | – | – | 78.1 | 91.6 | 12.6 | – | – | – | – |
| COc1ccc(C(OCCN2CCCC(C(=O)O)C2)(c2ccc(OC)cc2)c2ccc(C(C)=O)cc2)cc1 (racemic) [5 b, rac ‐1‐{2‐[(4‐Acetylphenyl)bis(4‐methoxyphenyl)methoxy]ethyl}piperidine‐3‐carboxylic acid] | – | – | – | – | 64.6 | 64.2 | 3.72 | 30.9 | 57.5 | – | – |
| COc1ccc(C(OCCN2CCCC(C(=O)O)C2)(c2ccc(CNCCC(=O)O)cc2)c2ccc(OC)cc2)cc1 (racemic) [5 o, rac‐ 1‐{2‐[(4‐{[(2‐Carboxyethyl)amino]methyl}phenyl)bis(4‐methoxy‐phenyl)methoxy]ethyl}piperidine‐3‐carboxylic acid] | 82.3 | 89.1 | 56.3 | – | 94.4 | 69.5 | – | – | – | – | – |
| COc1ccc(C(OCCN2CCCC(C(=O)O)C2)(c2ccc(OC)cc2)c2ccc(C(=O)O)cc2)cc1 (racemic) [5 e, rac ‐1‐{2‐[(4‐Carboxyphenyl)bis(4‐methoxyphenyl)methoxy]ethyl}piper‐idine‐3‐carboxylic acid] | 71.4 | – | – | – | 96.5 | 85.2 | 13.8 | – | 57.5 | – | – |
| COc1ccc(C(OCCN2CCCC(C(=O)O)C2)(c2ccc(OC)cc2)c2ccc3nccn3c2)cc1 (racemic) [5 d, rac‐ 1‐(2‐{Imidazo[1,2‐a]pyridin‐6‐ylbis(4‐methoxyphenyl)methoxy}‐ethyl)piperidine‐3‐carboxylic acid] | – | 81.8 | – | – | 84.9 | 72.9 | 26.3 | 93.3 | – | – | – |
| COc1ccc(C(O)(CCCN2CCCC(C(=O)O)C2)c2ccc(OC)cc2)cc1 (racemic) [5 l, rac ‐1‐[4‐Hydroxy‐4,4‐bis(4‐methoxyphenyl)butyl]piperidine‐3‐carboxylic acid] | – | 80.7 | 92 | – | 69.5 | 62.5 | – | 32.4 | – | – | – |

Continued, values first:

| remaining activity at 100 µM [1] [%] | remaining activity at 100 µM [2] [%] | remaining activity at 100 µM ([3]; in presence of 100 μM compound) [%] | remaining [^3H]GABA uptake mGAT4 ([3]; in presence of 100 μM compound) | remaining activity at 100 µM [4] [%] | remaining activity at 100 µM [5] [%] | IC50 [3] [µM] | Ki [1] [µM] | IC50 [2] [µM] | IC50 ([5]; [^3H]GABA uptake, pIC50±SEM) [µM] | IC50 ([4]; [^3H]GABA uptake, pIC50±SEM) [µM] | Structure (SMILES) |
| --- | --- | --- | --- | --- | --- | --- | --- | --- | --- | --- | --- |
| 54.1 | 96 | 50 | 50,0% | 99.5 | – | – | – | – | – | – | COc1ccc(C(OCCN2CCCC(C(=O)O)C2)(c2ccc(CNc3ccc(C(=O)O)cc3)cc2)c2ccc(OC)cc2)cc1 (racemic) [5 t, rac‐ 1‐{2‐[(4‐{[(4‐Carboxyphenyl)amino]methyl}phenyl)bis(4‐methoxy‐phenyl)methoxy]ethyl}piperidine‐3‐carboxylic acid] |
| 58.8 | 69.1 | – | – | 78.2 | 76 | 13.2 | – | – | – | – | COc1ccc(C(OCCN2CCCC(C(=O)O)C2)(c2ccc(CNC3(C(=O)O)CC3)cc2)c2ccc(OC)cc2)cc1 (racemic) [5 p, rac‐ 1‐{2‐[(4‐{[(1‐Carboxycyclopropyl)amino]methyl}phenyl)bis(4‐methoxyphenyl)methoxy]ethyl}piperidine‐3‐carboxylic acid] |
| 93.8 | 95.9 | 94.3 | – | 75.7 | 73.2 | – | – | – | – | – | CCOC(=O)C1CCCN(CCOC(c2ccc(OC)cc2)(c2ccc(OC)cc2)c2ccc(S(=O)(=O)N(C)C)cc2)C1 (racemic) [12 c, rac‐ Ethyl 1‐(2‐{[4‐(N,N‐dimethylsulfamoyl)phenyl]bis[4‐methoxyphenyl]‐methoxy}ethyl)piperidine‐3‐carboxylate] |
| 77.2 | – | – | – | – | – | 57.5 | – | 19.5 | 13.2 | 40.7 | CCOC(=O)C1CCCN(CCOC(c2ccc(OC)cc2)(c2ccc(OC)cc2)c2ccc3nccn3c2)C1 (racemic) [12 d, rac‐ Ethyl 1‐(2‐{imidazo[1,2‐a]pyridin‐6‐ylbis(4‐methoxyphenyl)methoxy}‐ethyl)piperidine‐3‐carboxylate] |
